Data reported in paper PMC7894522, “Structure Based Design of Bicyclic Peptide Inhibitors of RbAp48” (Angewandte Chemie (International Ed. in English), 2020).
Starred links: 1 amine or outer side, 2 acyl side, 3 side chain; linkers in the order of their positions; H or OH if unused. Positions of bridges follow the written chain, without caps; N, C: chain ends. Residues, ends and D or L forms follow the SMILES beside them. TBMB = c1c(C[*:1])cc(C[*:3])cc1C[*:2]; mXylylene = c1cc(C[*:1])cc(C[*:2])c1; X2 = c1ccc2c(C[*:2])ccc(C[*:1])c2c1; pXylylene = c1cc(C[*:2])ccc1C[*:1]; X4 = N#Cc1cc(C[*:1])cc(C[*:2])c1; X3 = COc1cc(C[*:1])cc(C[*:2])c1; X5 = Brc1cc(C[*:1])cc(C[*:2])c1

Target: RbAp48 (Homo sapiens, UniProt Q09028)
Sequence (Q09028 whole entry): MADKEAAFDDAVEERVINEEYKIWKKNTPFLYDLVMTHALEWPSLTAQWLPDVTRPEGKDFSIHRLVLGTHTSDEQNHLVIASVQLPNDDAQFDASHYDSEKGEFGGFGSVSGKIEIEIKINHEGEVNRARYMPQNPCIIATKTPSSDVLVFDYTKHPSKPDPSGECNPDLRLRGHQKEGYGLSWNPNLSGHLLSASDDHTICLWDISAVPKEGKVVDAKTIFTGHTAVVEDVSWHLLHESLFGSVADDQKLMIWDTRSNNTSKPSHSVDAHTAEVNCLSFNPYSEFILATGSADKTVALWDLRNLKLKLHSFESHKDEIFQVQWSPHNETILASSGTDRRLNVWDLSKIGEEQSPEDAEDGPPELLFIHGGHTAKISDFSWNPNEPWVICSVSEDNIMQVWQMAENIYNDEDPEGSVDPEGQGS
Assay: Competitive fluorescence polarization (FP) assay using complex of peptide 1 and RbAp48
Assay type: binding
Design: Full length RbAp48 was cloned; His tag followed by 3C cleavage site (N, cleaved yes); made in house; host or cells: Sf9 insect cells
Details: for IC50: Supplemental Table 2, competitive FP, tracer 1 nM, RbAp48 15 nM, pH 7.5, 30 min room temperature, read-out: IC50; for FP activity in words: competitive FP assay
Protocol: The binding affinity of our library of synthetic cyclic peptides was evaluated by a competitive fluorescence polarization (FP) assay using a complex formed by peptide 1 and RbAp48. To reduce the length of the peptide it was truncated to the amino acids which seemed most critical according to the crystal structure (residues 676–689, pdb:4pbz). […] We chose to use a cyclization approach to regain affinity, that is, not to induce more interactions but through minimizing the entropic penalty upon binding by reducing the flexibility of the peptide. To this end two amino acids were chosen which are facing one another in the structure (see Figure 1 B/D/E). Two peptides were designed where glutamic acid was used in position 676 (4) or position 680 (5) and lysine in position 688 for both peptides (see Table 1). The macrocycles were formed by connecting the side chains via an amide bond (see Figure 1 D/E). Peptide synthesis was performed on Rink‐amide resin using the Fmoc‐strategy incorporating Fmoc‐L‐Glu(All)‐OH and Fmoc‐L‐Lys(Alloc)‐OH at the sites for cyclization. After completion of the linear synthesis the allyl protecting groups were removed using Pd^0 catalysis and the amide link was formed by using PyBOP. […] Therefore, a range of peptides was synthesized which were cyclized using the same amino acid positions but via a cysteine alkylation strategy (see Figure 1 D/E and Table 1). In this method the residues used for cyclization are replaced with cysteine and benzylic dibromides act as crosslinkers on the unprotected peptides. ^[11] Previous research has shown that such linkers can effectively stabilize cyclic peptides and yield high affinity ligands for protein–protein interaction inhibition. ^[12] Such a linker introduces a xylene group in close vicinity of the hydrophobic patch potentially reconstituting the lost key hydrophobic interactions. To explore a variety of macrocycle conformations we used either ortho‐, meta‐ or para‐substituted dibromides to exchange the linker in both 4 and 5 (see Figure 1 D/E and Table 1). ^[13]
Protein expression and purification
RbAp48 was expressed and purified by the Dortmund Protein Facility. Full length RbAp48 was cloned into a pOPIN vector ligating it to an N-terminal His tag followed by a 3C cleavage site. The protein was expressed from Sf9 cells for 48 h. Cells were harvested and lysed and the protein was purified by loading onto a HisTrap FF crude 5 ml column followed by on-column cleavage using Precission protease. The cleaved protein was then further purified using a HiLoad 26/60 Superdex 200 column.
Fluorescence polarization assay
Fluorescence polarization assays were performed in 384 wells plates in 80 µl volumes. The assay buffer contains 20 mM Tris-HCl, 150 mM NaCl, 0.01% Tween-20 at pH 7.5. The concentration of the fluorescently labelled peptides was 1 nM plates were incubated at room temperature for 30 min before they were read on a Tecan Spark plate reader (λex = 485 nm, λem = 535 nm).
For competitive assays the same conditions were used with a tracer concentration of 1 nM was used and a protein concentration of 15 nM .

Row | IC50 [nM] | FP activity in words | Compound
1 | > 10000 | – | CC(=O)N[C@H]1CSCc2ccc(cc2)CSC[C@@H](C(=O)N[C@@H](CC(N)=O)C(N)=O)NC(=O)[C@@H]2CCCN2C(=O)[C@H](CC(C)C)NC(=O)[C@H](Cc2ccc(O)cc2)NC(=O)[C@@H]2CCCN2C(=O)[C@H](Cc2c[nH]cn2)NC(=O)[C@H](CCCNC(=N)N)NC(=O)[C@H](C)NC(=O)[C@H](C)NC(=O)[C@H](Cc2c[nH]cn2)NC(=O)[C@H](Cc2c[nH]c3ccccc23)NC(=O)[C@@H]2CCCN2C1=O [Peptide 19] (Ac-CPWHAARHPYLPCN-NH2; linker 1-13 via pXylylene)
2 | 22.3 ± 0.03 | IC50 values similar to those of 7 and 8 | CC(=O)N[C@H]1CSCc2cccc(c2)CSC[C@@H](C(=O)N[C@@H](C)C(N)=O)NC(=O)[C@@H]2CCCN2C(=O)[C@H](CCCCN)NC(=O)[C@H](Cc2ccc(O)cc2)NC(=O)[C@@H]2CCCN2C(=O)[C@H](CCCNC(=N)N)NC(=O)[C@H](CCCNC(=N)N)NC(=O)[C@H](C)NC(=O)[C@H](C)NC(=O)[C@H](CCCNC(=N)N)NC(=O)[C@H](CCCCN)NC(=O)[C@@H]2CCCN2C1=O [Peptide 20] (Ac-CPKRAARRPYKPCA-NH2; linker 1-13 via mXylylene)
3 | 25 ± 7.3 | IC50 values similar to those of 7 and 8 | CC(=O)N[C@H]1CSCc2ccc(cc2)CSC[C@@H](C(=O)N[C@@H](C)C(N)=O)NC(=O)[C@@H]2CCCN2C(=O)[C@H](CCCCN)NC(=O)[C@H](Cc2ccc(O)cc2)NC(=O)[C@@H]2CCCN2C(=O)[C@H](CCCNC(=N)N)NC(=O)[C@H](CCCNC(=N)N)NC(=O)[C@H](C)NC(=O)[C@H](C)NC(=O)[C@H](CCCNC(=N)N)NC(=O)[C@H](CCCCN)NC(=O)[C@@H]2CCCN2C1=O [Peptide 21] (Ac-CPKRAARRPYKPCA-NH2; linker 1-13 via pXylylene)
4 | 315 ± 57.8 | – | CC(=O)N[C@H]1CSCc2cccc(c2)CSC[C@@H](C(=O)N[C@@H](C)C(N)=O)NC(=O)[C@@H]2CCCN2C(=O)[C@H](CCCCN)NC(=O)[C@H](Cc2ccc(O)cc2)NC(=O)[C@@H]2CCCN2C(=O)[C@H](CCCNC(=N)N)NC(=O)[C@H](CCCNC(=N)N)NC(=O)[C@H](C)NC(=O)[C@H](C)NC(=O)[C@H](CCCNC(=N)N)NC(=O)[C@H](Cc2c[nH]c3ccccc23)NC(=O)[C@H]([C@@H](C)O)NC1=O [Peptide 22] (Ac-CTWRAARRPYKPCA-NH2; linker 1-13 via mXylylene)
5 | 245 ± 29.3 | – | CC(=O)N[C@H]1CSCc2ccc(cc2)CSC[C@@H](C(=O)N[C@@H](C)C(N)=O)NC(=O)[C@@H]2CCCN2C(=O)[C@H](CCCCN)NC(=O)[C@H](Cc2ccc(O)cc2)NC(=O)[C@@H]2CCCN2C(=O)[C@H](CCCNC(=N)N)NC(=O)[C@H](CCCNC(=N)N)NC(=O)[C@H](C)NC(=O)[C@H](C)NC(=O)[C@H](CCCNC(=N)N)NC(=O)[C@H](Cc2c[nH]c3ccccc23)NC(=O)[C@H]([C@@H](C)O)NC1=O [Peptide 23] (Ac-CTWRAARRPYKPCA-NH2; linker 1-13 via pXylylene)
6 | 265 ± 7.4 | – | CC(=O)N[C@H]1CSCc2cccc(c2)CSC[C@@H](C(=O)N[C@@H](C)C(N)=O)NC(=O)[C@@H]2CCCN2C(=O)[C@H](CCCCN)NC(=O)[C@H](Cc2ccc(O)cc2)NC(=O)[C@@H]2CCCN2C(=O)[C@H](CCCNC(=N)N)NC(=O)[C@H](CCCNC(=N)N)NC(=O)[C@H](C)NC(=O)[C@H](C)NC(=O)[C@H](Cc2c[nH]cn2)NC(=O)[C@H](CCCCN)NC(=O)[C@H]([C@@H](C)O)NC1=O [Peptide 24] (Ac-CTKHAARRPYKPCA-NH2; linker 1-13 via mXylylene)
7 | 303 ± 85.9 | – | CC(=O)N[C@H]1CSCc2ccc(cc2)CSC[C@@H](C(=O)N[C@@H](C)C(N)=O)NC(=O)[C@@H]2CCCN2C(=O)[C@H](CCCCN)NC(=O)[C@H](Cc2ccc(O)cc2)NC(=O)[C@@H]2CCCN2C(=O)[C@H](CCCNC(=N)N)NC(=O)[C@H](CCCNC(=N)N)NC(=O)[C@H](C)NC(=O)[C@H](C)NC(=O)[C@H](Cc2c[nH]cn2)NC(=O)[C@H](CCCCN)NC(=O)[C@H]([C@@H](C)O)NC1=O [Peptide 25] (Ac-CTKHAARRPYKPCA-NH2; linker 1-13 via pXylylene)
8 | 512 ± 48.4 | – | CC(=O)N[C@H]1CSCc2cccc(c2)CSC[C@@H](C(=O)N[C@@H](C)C(N)=O)NC(=O)[C@@H]2CCCN2C(=O)[C@H](CCCCN)NC(=O)[C@H](Cc2ccc(O)cc2)NC(=O)[C@@H]2CCCN2C(=O)[C@H](Cc2c[nH]cn2)NC(=O)[C@H](CCCNC(=N)N)NC(=O)[C@H](C)NC(=O)[C@H](C)NC(=O)[C@H](CCCNC(=N)N)NC(=O)[C@H](CCCCN)NC(=O)[C@H]([C@@H](C)O)NC1=O [Peptide 26] (Ac-CTKRAARHPYKPCA-NH2; linker 1-13 via mXylylene)
9 | 335 ± 65 | – | CC(=O)N[C@H]1CSCc2ccc(cc2)CSC[C@@H](C(=O)N[C@@H](C)C(N)=O)NC(=O)[C@@H]2CCCN2C(=O)[C@H](CCCCN)NC(=O)[C@H](Cc2ccc(O)cc2)NC(=O)[C@@H]2CCCN2C(=O)[C@H](Cc2c[nH]cn2)NC(=O)[C@H](CCCNC(=N)N)NC(=O)[C@H](C)NC(=O)[C@H](C)NC(=O)[C@H](CCCNC(=N)N)NC(=O)[C@H](CCCCN)NC(=O)[C@H]([C@@H](C)O)NC1=O [Peptide 27] (Ac-CTKRAARHPYKPCA-NH2; linker 1-13 via pXylylene)
10 | 38.4 ± 3.8 | – | COc1cc2cc(c1)CSC[C@@H](C(=O)N[C@@H](C)C(N)=O)NC(=O)[C@@H]1CCCN1C(=O)[C@H](CCCCN)NC(=O)[C@H](Cc1ccc(O)cc1)NC(=O)[C@@H]1CCCN1C(=O)[C@H](CCCNC(=N)N)NC(=O)[C@H](CCCNC(=N)N)NC(=O)[C@H](C)NC(=O)[C@H](C)NC(=O)[C@H](CCCNC(=N)N)NC(=O)[C@H](CCCCN)NC(=O)[C@H]([C@@H](C)O)NC(=O)[C@@H](NC(C)=O)CSC2 [Peptide 28] (Ac-CTKRAARRPYKPCA-NH2; linker 1-13 via X3 (inferred))
11 | 43.8 ± 4.7 | – | CC(=O)N[C@H]1CSCc2cc(C#N)cc(c2)CSC[C@@H](C(=O)N[C@@H](C)C(N)=O)NC(=O)[C@@H]2CCCN2C(=O)[C@H](CCCCN)NC(=O)[C@H](Cc2ccc(O)cc2)NC(=O)[C@@H]2CCCN2C(=O)[C@H](CCCNC(=N)N)NC(=O)[C@H](CCCNC(=N)N)NC(=O)[C@H](C)NC(=O)[C@H](C)NC(=O)[C@H](CCCNC(=N)N)NC(=O)[C@H](CCCCN)NC(=O)[C@H]([C@@H](C)O)NC1=O [Peptide 29] (Ac-CTKRAARRPYKPCA-NH2; linker 1-13 via X4 (inferred))
12 | 31 ± 3.7 | – | CC(=O)N[C@H]1CSCc2cc(Br)cc(c2)CSC[C@@H](C(=O)N[C@@H](C)C(N)=O)NC(=O)[C@@H]2CCCN2C(=O)[C@H](CCCCN)NC(=O)[C@H](Cc2ccc(O)cc2)NC(=O)[C@@H]2CCCN2C(=O)[C@H](CCCNC(=N)N)NC(=O)[C@H](CCCNC(=N)N)NC(=O)[C@H](C)NC(=O)[C@H](C)NC(=O)[C@H](CCCNC(=N)N)NC(=O)[C@H](CCCCN)NC(=O)[C@H]([C@@H](C)O)NC1=O [Peptide 30] (Ac-CTKRAARRPYKPCA-NH2; linker 1-13 via X5 (inferred))
13 | 40.4 ± 1.5 | – | CC(=O)N[C@H]1CSCc2cc(C)cc(c2)CSC[C@@H](C(=O)N[C@@H](C)C(N)=O)NC(=O)[C@@H]2CCCN2C(=O)[C@H](CCCCN)NC(=O)[C@H](Cc2ccc(O)cc2)NC(=O)[C@@H]2CCCN2C(=O)[C@H](CCCNC(=N)N)NC(=O)[C@H](CCCNC(=N)N)NC(=O)[C@H](C)NC(=O)[C@H](C)NC(=O)[C@H](CCCNC(=N)N)NC(=O)[C@H](CCCCN)NC(=O)[C@H]([C@@H](C)O)NC1=O [Peptide 31] (Ac-CTKRAARRPYKPCA-NH2; linker 1-13 via TBMB (inferred))
14 | 43.7 ± 6.4 | – | CC(=O)N[C@H]1CSCc2ccc(c3ccccc23)CSC[C@@H](C(=O)N[C@@H](C)C(N)=O)NC(=O)[C@@H]2CCCN2C(=O)[C@H](CCCCN)NC(=O)[C@H](Cc2ccc(O)cc2)NC(=O)[C@@H]2CCCN2C(=O)[C@H](CCCNC(=N)N)NC(=O)[C@H](CCCNC(=N)N)NC(=O)[C@H](C)NC(=O)[C@H](C)NC(=O)[C@H](CCCNC(=N)N)NC(=O)[C@H](CCCCN)NC(=O)[C@H]([C@@H](C)O)NC1=O [Peptide 32] (Ac-CTKRAARRPYKPCA-NH2; linker 1-13 via X2 (inferred))
